Results published in ChEMBL document CHEMBL1143399, “A small-molecule nitroimidazopyran drug candidate for the treatment of tuberculosis” (Nature, 2000).
≈ marks a conversion by molar mass, not a printed value.

Tests used:
Format in all cases: functional
[1] = tested on: Mycobacterium tuberculosis; experiment: Antimycobacterial activity against mono-rifampin-resistant Mycobacterium tuberculosis TN675
[2] = tested on: Mycobacterium tuberculosis; experiment: Antimycobacterial activity against mono-rifampin-resistant Mycobacterium tuberculosis TN994
[3] = tested on: Mycobacterium tuberculosis; experiment: Antimycobacterial activity against multidrug-resistant Mycobacterium tuberculosis TN768
[4] = tested on: Mycobacterium tuberculosis; experiment: Antimycobacterial activity against multidrug-resistant Mycobacterium tuberculosis TN576
[5] = tested on: Mycobacterium tuberculosis; experiment: Antimycobacterial activity against multidrug-resistant Mycobacterium tuberculosis TN1618
[6] = tested on: Mycobacterium tuberculosis; experiment: Antimycobacterial activity against multidrug-resistant Mycobacterium tuberculosis TN715
[7] = tested on: Mycobacterium tuberculosis; experiment: Antimycobacterial activity against multidrug-resistant Mycobacterium tuberculosis TN702
[8] = tested on: Mycobacterium tuberculosis; experiment: Antimycobacterial activity against multidrug-resistant Mycobacterium tuberculosis TN1195
[9] = tested on: Mycobacterium tuberculosis; experiment: Antimycobacterial activity against multidrug-resistant Mycobacterium tuberculosis TN2557
[10] = tested on: Mycobacterium tuberculosis; experiment: Antimycobacterial activity against multidrug-resistant Mycobacterium tuberculosis TN1314
[11] = tested on: Mycobacterium tuberculosis; experiment: Antimycobacterial activity against multidrug-resistant Mycobacterium tuberculosis TN565
[12] = tested on: Mycobacterium tuberculosis; experiment: Antimycobacterial activity against multidrug-resistant Mycobacterium tuberculosis TN1811
[13] = tested on: Mycobacterium tuberculosis; experiment: Antimycobacterial activity against multidrug-resistant Mycobacterium tuberculosis TN772

With `NNC(=O)c1ccncc1` [ISONIAZID] the MIC [1] was 0.03 µg/mL (≈ 0.219 µM) and the MIC [2] was 0.03 µg/mL (≈ 0.219 µM).

With `O=[N+]([O-])c1cn2c(n1)OC[C@@H](OCc1ccc(OC(F)(F)F)cc1)C2` [PRETOMANID] the MIC [3] was 0.06 µg/mL (≈ 0.167 µM), the MIC [4] was 0.06 µg/mL (≈ 0.167 µM) and the MIC [5] was 0.06 µg/mL (≈ 0.167 µM). For the same molecule, the MIC [6] was 0.06 µg/mL (≈ 0.167 µM), the MIC [7] was 0.25 µg/mL (≈ 0.696 µM) and the MIC [8] was 0.25 µg/mL (≈ 0.696 µM). For the same molecule, the MIC [9] was 0.13 µg/mL (≈ 0.362 µM), the MIC [10] was 0.03 µg/mL (≈ 0.0835 µM) and the MIC [11] was 0.06 µg/mL (≈ 0.167 µM). It also gave an MIC [1] of 0.015 µg/mL (≈ 0.0418 µM), an MIC [12] of 0.03 µg/mL (≈ 0.0835 µM) and an MIC [2] of 0.03 µg/mL (≈ 0.0835 µM). The MIC [13] was 0.03 µg/mL (≈ 0.0835 µM).
